The values below are quoted from earlier work in patent US20200276209A1, “METHODS OF TREATING EPILEPSY OR STATUS EPILEPTICUS” (Sage Therapeutics, Inc., priority 2017, published 2020).

Molecules are shown by their SMILES. Read-outs that look alike come from different tables or passages of the source.

The series concerns status epilepticus.

Regarding `O=C1Nc2ccc(Cl)cc2C(c2ccccc2Cl)=NC1O` (centres unmarked) [lorazepam], the “patients who did not respond to first line treatment” value (intravenous (IV) treatment) is on record as 36.6%.

Consider `Cc1ncc2n1-c1ccc(Cl)cc1C(c1ccccc1F)=NC2` [midazolam], for which the “patients who did not respond to first line treatment” value (intramuscular (IM) treatment) was 26.6%.
